The supplement of paper PMC4862054

Legend:
Experiment in all cases: normalised response (% of control), CellTiter-Glo; higher = more viable cells (100 = DMSO, 0 = benzethonium chloride kill control)
Conditions in all cases: incubation time: 72 h
[1] = system: CAL-85-1
How it was run: (§1)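 Breast cancer cell lines, seeded at 20 µl suspension per well, were incubated for 72 h in 384-well plates containing compound at 5 concentrations. These concentrations rose in 10-fold steps over a 10,000-fold range set for each compound. CellTox Green fluorescence (485/520 nm) was read, then CellTiter-Glo luminescence after 10 min at room temperature, and each plate was normalised to 0.1 % DMSO (100) and a positive kill control (0). Values are normalised signals, each at one concentration.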

[2] = system: SK-BR-3
How it was run: as §1

[3] = system: MFM-223
How it was run: as §1

[4] = system: BT-549
How it was run: as §1

[5] = system: MDA-MB-468
How it was run: as §1

[6] = system: MDA-MB-453
How it was run: as §1

[7] = system: BT-474
How it was run: as §1

[8] = system: MCF-10A
How it was run: as §1

[9] = system: HCC1143
How it was run: as §1

[10] = system: HCC1937
How it was run: as §1

[11] = system: Hs578T
How it was run: as §1

[12] = system: CAL-51
How it was run: as §1

[13] = system: HCC1599
How it was run: as §1

[14] = system: MDA-MB-436
How it was run: as §1

[15] = system: MDA-MB-231
How it was run: as §1

[16] = system: HDQ-P1
How it was run: as §1

[17] = system: CAL-148
How it was run: as §1

[18] = system: DU-4475
How it was run: as §1

[19] = system: CAL-120
How it was run: as §1

Compound: C=CC(=O)N1CCC[C@@H](n2nc(-c3ccc(Oc4ccccc4)cc3)c3c(N)ncnc32)C1 [Ibrutinib] (1 nM)
- normalised response [1]: 98.3%
- normalised response [2]: 98.1%
- normalised response [3]: 108%
- normalised response [4]: 97.8%
- normalised response [5]: 105%
- normalised response [6]: 107%
- normalised response [7]: 103%
- normalised response [8]: 111%
- normalised response [9]: 106%
- normalised response [10]: 95.3%
- normalised response [11]: 99.3%
- normalised response [12]: 102%
- normalised response [13]: 102%
- normalised response [14]: 98.2%
- normalised response [15]: 105%
- normalised response [16]: 98.2%
- normalised response [17]: 114%
- normalised response [18]: 106%
- normalised response [19]: 97.7%

Compound: COc1cc([C@@H]2c3cc4c(cc3[C@@H](O[C@@H]3O[C@@H]5CO[C@@H](c6cccs6)O[C@H]5[C@H](O)[C@H]3O)[C@H]3COC(=O)[C@H]23)OCO4)cc(OC)c1O [Teniposide] (1 nM)
- normalised response [1]: 99%
- normalised response [2]: 101%
- normalised response [3]: 96%
- normalised response [4]: 103%
- normalised response [5]: 95.9%
- normalised response [6]: 91.8%
- normalised response [7]: 99.3%
- normalised response [8]: 106%
- normalised response [9]: 100%
- normalised response [10]: 106%
- normalised response [11]: 106%
- normalised response [12]: 125%
- normalised response [13]: 107%
- normalised response [14]: 96.9%
- normalised response [15]: 94.1%
- normalised response [16]: 96.4%
- normalised response [17]: 102%
- normalised response [18]: 99%
- normalised response [19]: 95.8%

Compound: CCCS(=O)(=O)Nc1ccc(F)c(C(=O)c2c[nH]c3ncc(-c4ccc(Cl)cc4)cc23)c1F [Vemurafenib] (1 nM)
- normalised response [1]: 98%
- normalised response [2]: 86.9%
- normalised response [3]: 88%
- normalised response [4]: 95%
- normalised response [5]: 95%
- normalised response [6]: 83.4%
- normalised response [7]: 97.2%
- normalised response [8]: 82.1%
- normalised response [9]: 85.1%
- normalised response [10]: 91.5%
- normalised response [11]: 95.3%
- normalised response [12]: 92.5%
- normalised response [13]: 95.6%
- normalised response [14]: 88%
- normalised response [15]: 95.9%
- normalised response [16]: 89.6%
- normalised response [17]: 84.2%
- normalised response [18]: 96.7%
- normalised response [19]: 92.4%

Compound: Cc1ccc(-c2cc(C(F)(F)F)nn2-c2ccc(S(N)(=O)=O)cc2)cc1 [Celecoxib] (1 nM)
- normalised response [1]: 104%
- normalised response [2]: 102%
- normalised response [3]: 102%
- normalised response [4]: 104%
- normalised response [5]: 102%
- normalised response [6]: 111%
- normalised response [7]: 96.5%
- normalised response [8]: 98.8%
- normalised response [9]: 96.8%
- normalised response [10]: 95.9%
- normalised response [11]: 105%
- normalised response [12]: 88.1%
- normalised response [13]: 93.6%
- normalised response [14]: 95.1%
- normalised response [15]: 98%
- normalised response [16]: 97.4%
- normalised response [17]: 102%
- normalised response [18]: 95.5%
- normalised response [19]: 96.8%

Compound: COc1cc2c(Oc3ccc4[nH]c(C)cc4c3F)ncnc2cc1OCCCN1CCCC1 [Cediranib] (1 nM)
- normalised response [1]: 109%
- normalised response [2]: 99.8%
- normalised response [3]: 108%
- normalised response [4]: 101%
- normalised response [5]: 113%
- normalised response [6]: 99.7%
- normalised response [7]: 104%
- normalised response [8]: 104%
- normalised response [9]: 106%
- normalised response [10]: 94.7%
- normalised response [11]: 97%
- normalised response [12]: 131%
- normalised response [13]: 93.9%
- normalised response [14]: 97.8%
- normalised response [15]: 101%
- normalised response [16]: 98.6%
- normalised response [17]: 106%
- normalised response [18]: 102%
- normalised response [19]: 105%
